# From patent US11058619B2, “Carboxylated polyphenol derivatives and their cosmetic use” (L'ORÉAL, priority 2016, dated 2021)
# Several values for one entry are separate records, joined by “and”; a condition that tells them apart may be missing. Equal entries are not always repeated.
# Assays:
# HAS3 marker = test: Gene marker expression (HAS3) in human epidermal keratinocytes by RT-qPCR; assay type: cell-based
# Experimental: Human epidermal keratinocytes were seeded in 48 well-culture plate and cultured for 48 hours at 37° C. and 5% of CO2 in culture medium with renewal of culture medium after the first 24 hours. At the end of incubation, culture medium was replaced by assay medium containing or not (control) raw material and cells were incubated for additional 24 hours. All experimental conditions were performed in n=3. At the end of treatment, cells were washed twice in PBS (w/o CaCl2, w/o MgCl2) and RNA extraction was performed using MagMAX™-96 Total RNA Isolation Kit (Ambion cat n° AM8130) according to manufacturer recommendation. RNA quantification and quality control were performed using Labchip GX (Perkin Elmer). Relative expression of selected markers was measured by two steps RT-qPCR. In a first step, a reverse transcription was performed using the Quantitect® Reverse transcription kit (QIAGEN) and according to manufacturer recommendation. Then, PCR experiments were performed using a LightCycler® 480 Real-Time PCR System measuring SYBR®Green incorporation (Roche).
# normal human melanocytes = test: Depigmenting activity: melanin produced by normal human melanocytes in vitro; assay type: cell-based
# Experimental: The measurement of the depigmenting activity (reduction in the production of melanin) of compounds of formula (I) was performed by assaying the melanin produced by normal human melanocytes in vitro as follows.
# First of all, normal human melanocytes are cultured and dispensed into 384 wells. After 24 hours, the culture medium was replaced with a medium containing compounds of formula (I) to be evaluated. The cells were incubated for 72 hours before measurement of the final optical density, which measures the amount of melanin produced by the melanocytes. A […] is performed using a wide concentration range of the compounds evaluated. Thus, by making the concentrations and the measurements of melanin correspond, it is possible to determine an IC50 in μM: concentration at which 50% decrease in melanin synthesis is achieved.
compound,measurement,setting,value
O=C(O)c1c(O)cc(/C=C/c2ccc(O)cc2)cc1O [Compound W],Relative expression (UA) of HAS3,"HAS3 marker; 30 μM, 24 hours, human epidermal keratinocytes, individual replicates (n=3)",3.44E−03 UA and 3.32E−03 UA and 3.61E−03 UA
same,Fold change Mean of HAS3 expression vs control,"HAS3 marker; 30 μM, 24 hours, mean of n=3",2.45
same,Fold change (Nb) of HAS3 expression,"HAS3 marker; 30 μM, 24 hours, vs control, individual replicates (n=3)",2.432 Nb and 2.35 Nb and 2.553 Nb
same,cytotoxicity,"HAS3 marker; human epidermal keratinocytes, at 30 μM",without cytotoxicity
same,IC50,"normal human melanocytes; Melanocyte, normal human melanocytes, 72 hours incubation, optical density, read-out: IC50, inhibiting effect on the production of melanin",25 µM
same,Mean percentage Depigmentation,normal human melanocytes; concentration 0.000003125 (unit not given),15.6%
same,Mean percentage Depigmentation,normal human melanocytes; concentration 0.00000625 (unit not given),22.8%
same,Mean percentage Depigmentation,normal human melanocytes; concentration 0.0000125 (unit not given),32.8%
same,Mean percentage Depigmentation,normal human melanocytes; concentration 0.000025 (unit not given),43.0%
same,Mean percentage Depigmentation,normal human melanocytes; concentration 0.00005 (unit not given),76.7%
same,Mean percentage Depigmentation,normal human melanocytes; concentration 0.0001 (unit not given),99.7%
same,Mean percentage Depigmentation,normal human melanocytes; concentration 0.0002 (unit not given),125.6%
same,Mean percentage Depigmentation,normal human melanocytes; concentration 1.5625*10^−6 (unit not given),9.7%
same,Mean percentage Depigmentation,normal human melanocytes; concentration 3.90625*10^−7 (unit not given),−0.9%
same,Mean percentage Depigmentation,normal human melanocytes; concentration 7.8125*10^−7 (unit not given),5.5%
same,depigmenting effect,normal human melanocytes; normal human melanocytes,showed a depigmenting effect
same,cytotoxicity,"normal human melanocytes; normal human melanocytes, in the concentration range tested",without cytotoxicity
